Key:
[1] = tested on: HCT-116 cells; experiment: Cell cycle analysis with propidium iodide (FACS); type: cell-based, human; details: HCT-116, PI FACS
Method: The percentage of cells in the G1, S and G2/M phases of the cell cycle was determined by staining DNA with propidium iodide and quantifying the number of cells with a 2N or 4N DNA complement by flow cytometry. Alterations in the distribution of cells across the cell cycle in response to exposure to the Cdk inhibitors was evaluated in this manner.
3 sets of HCT-116 cells (100,000 cells/set) were cultured in the presence of a test compound in T-25 flasks according to Table 1 below. Analysis was performed at 24, 48 and 72 hours. Adherent cells were collected by trypsinization, combined with floating cells in Falcon 12×75 flow cytometric tubes, and harvested by centrifugation. The media was decanted from the cell pellet, 100 μl of PI stain was added and the cells were incubated at 37° C. for 20-25 minutes. The cell count was preferably no greater than 2×10^6-4×10^6/ml. An equal volume (100 μl) of PI salt was then added to the cells, which were then incubated at 4° C. for 1-2 hours. The stained cells were analyzed on a Becton Dickinson FACScan flow cytometer. Samples were protected from light.

[2] = tested on: HCT-116; experiment: Calcein AM viability assay, HCT-116; type: cell-based; details: Homo sapiens, HCT-116, non-protein adjusted, Table 6
Method: The potency of Cdk inhibitors, as measured by loss of cellular viability, was determined with the Calcein AM assay (Molecular Probes). Calcein AM is a substrate of intracellular esterases, which is cleaved only in viable cells to generate a fluorescent product that can be quantified with a fluorescent plate reader. The fluorescent signal is proportional to the number of viable cells, and thus loss of signal in response to the exposure of cells to Cdk inhibitors correlates with a loss of viability. This assay can distinguish cell cycle arrest, in which cells may still by viable, from loss of viability and is thus well suited for the evaluation of Cdk inhibitors. A compound that is a potent cytotoxic, may cause significant loss of cell viability in such assay.
Cellular IC50's were determined in the human colorectal carcinoma cell line, HCT-116, and the normal human fibroblast, IMR90. Protein adjusted IC50's were also determined in HCT-116.
HCT-116 or IMR90 cells were recovered from sub-confluent plates by trypsinization and 1,000 or 4,000 cells, respectively, were plated in 24-well dishes and incubated overnight at 37° C., 5% CO2. HCT-116 cells were cultured in RPMI-1640, 10% FCS, and IMR90 cells were cultured in Minimum Essential Medium-alpha, 10% FCS. After overnight incubation to allow adherence, the media was aspirated from each well and replaced with media containing a test compound at a concentration from 0 to 250 nM, spanning a total of 7 doses. The plates were returned to the incubator and cultured for an additional 72 hours (3 days). […] After 72-hours incubation with the test compound, the cells were washed twice with 1×PBS, taking special care to remove all residual buffer.
A 5 μM Calcein AM solution was prepared by dissolving a 50 μg aliquot of Calcein (Molecular Probes catalog # C3100) in 50 μl DMSO. After the Calcein had completely dissolved (10 minutes at room temperature), it was diluted into 10 ml PBS. Calcein/PBS (0.5 ml) was added to each well. The plates were incubated for 75 minutes at 37° C. (protected from light) and the fluorescent signal was read on a fluorescent plate reader (excitation 485/20 and emission 530/25).

[3] = target: T1, Cdk4/cyclin D1 (Homo sapiens, UniProt P11802); experiment: Cdk4/cyclin D1 kinase assay (GST-Rb, glutathione-sepharose capture); type: biochemical; details: Table 6
T1 construct: made in house; host or cells: Sf9 insect cells
T1 sequence (P11802 whole entry, species assumed): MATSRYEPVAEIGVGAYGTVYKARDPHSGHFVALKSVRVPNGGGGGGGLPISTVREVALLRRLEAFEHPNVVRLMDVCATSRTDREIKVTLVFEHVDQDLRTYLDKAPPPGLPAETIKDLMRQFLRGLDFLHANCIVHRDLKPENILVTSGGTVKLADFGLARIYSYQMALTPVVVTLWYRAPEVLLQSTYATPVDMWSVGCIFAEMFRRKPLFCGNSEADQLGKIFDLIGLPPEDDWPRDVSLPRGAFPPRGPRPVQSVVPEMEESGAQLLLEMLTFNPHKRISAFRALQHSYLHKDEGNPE
T1 sequence (P24385 whole entry partner, species assumed): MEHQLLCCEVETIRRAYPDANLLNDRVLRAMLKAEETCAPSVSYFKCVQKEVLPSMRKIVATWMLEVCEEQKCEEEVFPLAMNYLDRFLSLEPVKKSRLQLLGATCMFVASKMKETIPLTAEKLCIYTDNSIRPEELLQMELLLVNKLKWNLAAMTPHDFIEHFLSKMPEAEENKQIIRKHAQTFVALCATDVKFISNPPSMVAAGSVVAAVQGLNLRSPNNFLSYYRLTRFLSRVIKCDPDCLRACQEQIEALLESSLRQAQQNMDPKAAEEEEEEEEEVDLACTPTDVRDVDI
Description: (§1) Enzymes: Cdc2/cyclin B was obtained from commercial sources. Cdk2/his-cyclin Eshort was expressed in Sf9 cells. Cdk2/cyclin A, cdk4/cyclin D1, and cdk6/cyclin D2 were expressed in Sf9 cells. Protein kinase A (catalytic subunit, from bovine heart) and protein kinase C (mixed isozymes from rat brain) were obtained from commercial sources.
(§2) Substrates: Histone H1 was from commercial sources. GST-Rb is glutathione-S-transferase fused to the N-terminal of residues 379-928 of the Rb protein.
Cdk2/cyclin E, Cdk2/cyclin A, Cdk4/cyclin D1, and Cdk6/cyclin D2 activity was determined using a glutathione-sepharose capture assay. […] After washing the retained beads five time with phosphate-buffered saline containing 0.3% (w/v) Tween-20, the amount of ^33P incorporated was determined by scintillation counting after adding 100 μL scintillant. Relative activity was determined by dividing the amount of radioactivity incorporated in the presence of compound by the amount of radioactivity incorporated in a control experiment containing DMSO alone but no compound. The background radioactivity, determined in an experiment containing 50 mM disodium ethylenediamine tetraacetate in place of compound, was subtracted from all results before calculations.

[4] = target: T2, Cdc2/cyclin B (Homo sapiens, UniProt P06493); experiment: Cdc2/cyclin B kinase assay (Histone H1, TCA precipitation); type: biochemical; details: Table 6
T2 construct: purchased
T2 sequence (P06493 whole entry, species assumed): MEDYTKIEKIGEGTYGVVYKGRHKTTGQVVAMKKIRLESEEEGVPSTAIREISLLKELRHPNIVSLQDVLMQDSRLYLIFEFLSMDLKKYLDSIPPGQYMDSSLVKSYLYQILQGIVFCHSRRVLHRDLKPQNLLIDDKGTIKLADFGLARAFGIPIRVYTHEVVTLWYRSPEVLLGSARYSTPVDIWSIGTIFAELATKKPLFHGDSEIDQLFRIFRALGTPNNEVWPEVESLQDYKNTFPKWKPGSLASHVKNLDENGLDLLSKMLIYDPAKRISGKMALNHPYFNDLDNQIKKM
T2 sequence (P14635 whole entry partner, species assumed): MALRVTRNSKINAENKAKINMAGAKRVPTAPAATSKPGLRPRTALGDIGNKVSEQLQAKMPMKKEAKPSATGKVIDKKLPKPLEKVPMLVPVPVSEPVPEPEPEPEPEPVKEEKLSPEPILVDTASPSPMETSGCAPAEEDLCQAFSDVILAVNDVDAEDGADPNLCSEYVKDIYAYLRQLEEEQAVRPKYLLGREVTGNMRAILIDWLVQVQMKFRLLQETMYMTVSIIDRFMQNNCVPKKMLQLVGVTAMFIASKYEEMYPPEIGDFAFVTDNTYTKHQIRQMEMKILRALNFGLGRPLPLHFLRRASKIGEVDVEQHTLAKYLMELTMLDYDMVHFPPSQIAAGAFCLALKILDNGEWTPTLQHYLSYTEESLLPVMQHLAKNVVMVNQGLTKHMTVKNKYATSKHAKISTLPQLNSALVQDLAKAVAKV
Description: as §1, §2
Assays: Cdc2/cyclinB activity was determined by measuring incorporation of radio-activity from adenosine [γ-^32P]triphosphate into Histone H1 using a TCA precipitation assay. Cdc2/cyclin B kinase and Histone H1 were obtained from commercial sources. […] The filter was washed ten times with 25% (w/v) trichloroacetic acid, and the amount of incorporated ^32P was determined by scintillation counting after adding 100 μL scintillant (Microscint 20, Packard Instruments). Relative activity was determined by dividing the amount of radioactivity incorporated in the presence of compound by the amount of radioactivity incorporated in a control experiment containing DMSO alone but no compound. The background radioactivity, determined in an experiment containing 50 mM EDTA in place of compound, was subtracted from all results before calculations. […]

[5] = tested on: HCT-116 cells; experiment: Clonogenic survival assay; type: cell-based, human; details: HCT-116 clonogenic time-course, at 100 nM
Method: This assay was used to determine the concentration of a compound that results irreversible loss of viability after a specified period of exposure. Essentially, cells are exposed to compound for a period of 1, 2 or 5 days, and are then transferred to compound-free growth medium. After continued incubation in the compound-free medium for a number of days, the number of colonies recovered is counted as an estimate of the number of surviving cells.
Media (RPMI-1640, 10% FCS, pen/strep) was pre-warmed to 37° C. in a water bath. Cells were incubated and grown at 37° C., 5% CO2. Cells were recovered by trypsinization from sub-confluent plates and counted using a hemocytometer. 1×10^4 cells were plated in 25 mls of media in a 15 cm tissue culture dish. 14 plates were set up for each test compound, and were incubated overnight at 37° C. The compound was diluted into media at 7 concentrations and the media on the cells was replaced with that containing the test compound. Two plates were set up for each concentration of the compound to be tested, as well as two control plates without compound. […] Colonies were stained with crystal violet solution (0.4% crystal violet, 20% ethanol) for 5 minutes, washed twice with distilled water, and counted.

[6] = target: protein kinase C (mixed isozymes from rat brain); experiment: Protein kinase C assay (Histone H1, TCA precipitation); type: biochemical; details: Table 5; read-out: PKC IC50
Method: as §1
Protein kinase C and protein kinase A were assayed using a TCA precipitation assay with Histone H1 as a substrate. For protein kinase A, the final assay contained 50 mM Tris, 10 mM MgCl2, 1 mM dithiothreitol, pH 7.5, 12 μM adenosine triphosphate, 10% (v/v) dimethylsulfoxide (from compounds), 20 μg Histone H1, 2 μCi [γ-^32P] adenosine triphosphate, 0.2 U protein kinase A in a 100 μL assay. A protein kinase C assay contained 50 mM Tris, 10 mM MgCl2, 1 mM dithiothreitol, 0.8 mM CaCl2, pH 7.5, 5 μM adenosine triphosphate, 10% (v/v) dimethylsulfoxide (from compounds), 20 μg Histone H1, 2 μCi [γ-^32P] adenosine triphosphate, 0.01 U protein kinase C in a 50 μL assay. The assays were started by the addition of enzyme, allowed to react for 10 min at 30° C., and stopped by adding 0.4 volumes of 237 mM disodium ethylenediamine tetraacetate, 105 mM adenosine triphosphate, pH 8.0. […] The filters were washed ten times with 25% (w/v) trichloroacetic acid, and the amount of incorporated [^32P]phosphate was determined by adding 100 μl Microscint and scintillation counting.

## CC(C)N1CCN(C(=O)COc2ccc(-c3[nH]nc4c3C(=O)c3c(NC(=O)NN5CCOCC5)cccc3-4)cc2)CC1.Cl [Compound A37]
[1]
  Effect on cell cycle distribution: terminally arrested in G1 and G2, with evidence of apoptosis and endo-reduplication

## CC(C)c1nn(-c2c(Cl)cc(Cl)cc2Cl)c2nc(Cc3ccc(NS(=O)(=O)CCCN4CCCC4)cc3)[nH]c(=O)c12 [Compound A38]
[2]
  IC50: < 100 nM

## CC(C)c1nn(-c2c(Cl)cc(Cl)cc2Cl)c2nc(Cc3ccc(NS(=O)(=O)CCCN4CCN(C(C)C)CC4)cc3)[nH]c(=O)c12 [Compound A39]
[2]
  IC50: < 100 nM

## Cc1nc(Cc2nc3c(c(C(C)C)nn3-c3c(Cl)cccc3Cl)c(=O)[nH]2)cs1 [Compound A58]
[2]
  IC50: < 100 nM

## CC(C)c1nn(-c2c(Cl)cccc2Cl)c2nc(Cc3ccc(OCCO)cc3)[nH]c(=O)c12 [Compound A59]
[2]
  IC50: < 100 nM

## CC(C)c1nn(-c2c(Cl)cccc2Cl)c2nc(Cc3ccc(OCCOC(=O)[C@@H](N)C(C)C)cc3)[nH]c(=O)c12 [Compound A60]
[3]
  IC50: < 10000 nM
[4]
  IC50: < 1000 nM

## CC(C)c1nn(-c2c(Cl)cc(Cl)cc2Cl)c2nc(Cc3ccc(OCCO)cc3)[nH]c(=O)c12 [Compound A61]
[2]
  IC50: < 100 nM

## COc1ccc(Cc2nc3c(c(C(C)C)nn3-c3c(Cl)cccc3Cl)c(=O)[nH]2)cc1 [Compound A67]
[2]
  IC50: < 100 nM

## COCCN1CCN(Cc2ccc(-c3[nH]nc4c3C(=O)c3c(NC(=O)NN5CCOCC5)cccc3-4)cc2)CC1.Cl.Cl [Compound B16, N-[3-(4-{[4-(2-methoxyethyl)piperazinyl]methyl}phenyl)-4-oxoindeno[2,3-d]pyrazol-5-yl](morpholin-4-ylamino)carboxamide dihydrochloride]
[5]
  Time within which IC50 is reached: 30 to 60 min
[1]
  Effect on cell cycle distribution: Analogous results

## CC(C)c1nn(-c2c(Cl)cccc2Cl)c2nc(Cc3ccc(O)c(CN4CCN(C(C)C)CC4)c3)[nH]c(=O)c12 [Compound C]
[6]
  IC50: > 10000 nM

## CC(C)N1CCN(CCOc2ccc(-c3[nH]nc4c3C(=O)c3c(NC(=O)NN5CCOCC5)cccc3-4)cc2)CC1 [E]
[6]
  IC50: < 10000 nM

Source: US7786112B2, “Inhibitors of cyclin-dependent kinases, compositions and uses related thereto” (Agennix USA Inc., priority 2003, dated 2010)
